Where a SMILES comes first, the peptide text is derived from it.
Legend:
Format in all cases: in vivo
male Wister rats [1] = assay: Effect on yawning behavior induced by apomorphine; settings: s.c.
Method: Effect on yawning behavior
Male Wister rats (weighing 200 to 300 g) were used, with 10 rats in each group. The rat was placed into a plastics cage (17×24×12 cm) with a floor mat and was then habituated for 30 minutes. Peptide A, peptide B, CCK-8 or the above-mentioned diluent serving as a control was subcutaneously given to the animal. Thirty minutes thereafter, 0.03 mg/kg of apomorphine was subcutaneously given to the animal. The number of yawns induced by apomorphine was counted during a period of 30 minutes following administration of apomorphine. The test was conducted in a soundproof compartment for each animal. Wilcoxon rank-sum test was resorted to for statistical treatment.

[2] = Induction of yawning behavior by the peptide itself; settings: yawning thought to be induced by a reduction in the amount of dopamine
test animals = assay: Induction of catalepsy in test animals
Male ddy mice [3] = assay: Effect on hyperlocomotion induced by thyrotropin releasing hormone (TRH); settings: s.c.
Method: Effect on hyperlocomotion induced by thyrotropin releasing hormone (TRH)
Male ddy mice (weighing 18 to 24.5 g) were used. The mice were placed into a transparent acrylic resin cage (26×37×11 cm) installed on Animex meter. Before experiment, the mice were allowed to habituate for 2 hours in the cage to fully lower the activity of the mice. After the completion of habituation, peptide A, peptide B or a diluent (physiological saline containing 1 mg/ml of sodium hydrogencarbonate) serving as a control was subcutaneously given to the mice. Thirty minutes thereafter, 5 mg/kg of TRH was intraperitoneally given to the animals. The activity counts during the period of 60 minutes following the administration of TRH was measured. Student's t-test was resorted to for statistical treatment.

male Wister rats [4] = assay: Effect on metabolism of amine in the brain; settings: 1 mg/kg s.c., 1 hour after dosing
Method: Effect on metabolism of amine in the brain
Unfasted male Wister rats (weighing 180 to 220 g) were used. Peptide A or peptide B was subcutaneously given to the animal at a dose of 1 mg/kg, the head was irradiated with microwave 1 hour thereafter, and amine metabolite was extracted from the brain. First, removed tissues were homogenized with 1M formic acid and centrifuged at 20,000×g for 20 minutes, and the supernatant (1 ml) was shaken with 5 ml of ethyl acetate. The 3,4-dihydroxyphenylacetic acid (DOPAC), homovanillic acid (HVA) and 5-hydroxyindoleacetic acid (5-HIAA) in the ethyl acetate layer were analyzed by high-performance liquid chromatography under the following conditions. Chemcosorb, 5-ODS, 20 cm×4.6 mm I.D. was used for a separating column, and a mobile phase (0.1M KH2 PO4 (pH 5.0)-5 mM EDTA-2Na-5% acetonitrile) was passed through the column at a flow rate of 1 ml/min. The electrochemical detector was set to an oxidation potential of +0.8 V.

male Wister rats [5] = assay: Effect on the fixed ratio responding in rats (FR20); settings: s.c., 15 min before a 20 min session, dose giving count 50 with control as 100
Method: Effect on the fixed ratio responding in rats
The test was conducted according to the method described in Ahlenius S. and Engel J., Eur. J. Pharm., Vol. 15, 187-192 (1971).
Male Wister rats (weighing 240 to 320 g) were placed into Skinner box (product of Bil-Medika Co., Ltd., Japan, adapted to give a feed when a lever within the box is pressed) and made to learn how to take the food. In this test, one feed was given to the rats when the lever was pressed 20 times, i.e., fixed ratio (FR) 20. The rats showing stable FR20 response were divided into groups each including four rats.
Physiological saline (containing 1 mM of sodium hydrogencarbonate) containing a specified amount of a test compound was subcutaneously given to the rats of one group in a volume of 0.1 ml/100 g. (Physiological saline containing the above-mentioned amount of sodium hydrogencarbonate only was given to the control group). Fifteen minutes after the administration, the test animals were placed in the Skinner box, and the number of times the animals took the feed for 20 minutes was counted. The dose at which the count gained by the group of animals was 50, namely, ED50 value, was determined, with the count gained by the control group calculated as 100. The same procedure as above was repeated with use of the other test compounds.

Male ICR mice = assay: Inhibitory effect on hyperlocomotion induced by administration of methylphenidate; settings: s.c. with methylphenidate 10 mg/kg s.c., 1 hour after administration, 50 with control as 100
Method: Inhibitory effect on hyperlocomotion induced by administration of methylphenidate
Male ICR mice (weighing 24 to 30 g) were divided into groups, each including 10 mice. To one group of mice were subcutaneously given 10 mg/kg of methylphenidate and 0.1 ml/10 g of a saline solution of a specified amount of a test compound and 1 mM of sodium hydrogencarbonate. One hour after the administration, the test animals were checked for hyperlocomotion, which was measured with use of a device for measuring locomotion of small animals (wherein the motion of an animal shifts the center of graavity of the device to actuate a microswitch for the measurement of the amount of motion, see Folia Pharmacologica Japonica, 74, 629-639 (1978). For a control group, the same procedure as above was repeated except that the saline solution given was free from any test compound. The concentration of the test compound at which the result achieved by the group of animals was 50, namely, ED50 value, was determined, with the measurement obtained by the control group calculated as 100. The other compounds were tested in the same manner as above.

Male ddy mice [6] = assay: Effect on climbing behavior induced by apomorphine (Pharmacological Test 7); settings: control 9.8 ± 0.7
Method: Effect on climbing behavior induced by apomorphine
Male ddy mice (weighing 20 to 30 g) were used, with 10 mice in each group. Each mouse was placed into a cylindrical cage, 12 cm in diameter and 14 cm in height, made up of vertical rods of 2 mm in diameter spaced apart at a distance of 10 mm in a circular arrangement. The mouse was allowed to stand therein for 2 hours. Physiological saline containing a specified amount of a test compound (and 1 mM of sodium hydrogencarbonate) was subcutaneously given to one group of mice in a volume of 1 ml/10 g. (The same dose of saline only was given to a control group). […] The test was carried out in soundproof compartments.
0: All the four legs are on the floor.
2: At least three legs are on rods.
The other compounds were tested in the same manner as above. The test was carried out in soundproof compartments. Student's t-test was resorted to for satistical treatment.

| Molecule | Effect on TRH-induced hyperlocomotion (in words) (Male ddy mice [3]) | Increase of DOPAC content in hypothalamus (male Wister rats [4]) | Influence on content of metabolite (DOPAC, HVA, 5-HIAA) in frontal cortex, limbic forebrain, and striatum (male Wister rats [4]) | ED50, inhibition of FR20 responding (male Wister rats [5]) | other results |
| --- | --- | --- | --- | --- | --- |
| CSCC[C@H](NC(=O)[C@H](Cc1ccc(OS(=O)(=O)O)cc1)NC(=O)[C@@H](N)CC(=O)O)C(=O)NCC(=O)N[C@@H](Cc1c[nH]c2ccccc12)C(=O)N[C@@H](CCSC)C(=O)N[C@@H](CC(=O)O)C(=O)N[C@@H](Cc1ccccc1)C(N)=O [CCK-8, Asp--Tyr(SO3 H)--Met--Gly--Trp--Met--Asp--Phe--NH2] | – | – | – | – | Effect on yawning behavior induced by apomorphine (in words) (male Wister rats [1]): is not inhibited by CCK-8; Induction of yawning behavior (in words) [2]: induces no yawning behavior whatsoever; Induction of catalepsy (side effect, in words) (test animals): induces catalepsy |
| CSCC[C@H](NC(=O)[C@H](Cc1ccc(OS(=O)(=O)O)cc1)NC(=O)[C@H](CC(=O)O)NC(=O)CCCC(=O)O)C(=O)NCC(=O)N[C@@H](Cc1c[nH]c2ccccc12)C(=O)N[C@@H](CCSC)C(=O)N[C@@H](CC(=O)O)C(=O)N[C@@H](Cc1ccccc1)C(N)=O [Peptide A, Glt--Asp--Tyr(SO3 H)--Met--Gly--Trp--Met--Asp--Phe--NH2] | inhibit the hyperlocomotion induced by TRH | about 60% | Neither of peptide A and peptide B was found to influence | – | – |
| CSCC[C@H](NC(=O)[C@H](Cc1ccc(OS(=O)(=O)O)cc1)NC(=O)[C@H](CC(=O)O)NC(=O)[C@@H]1CCC(=O)N1)C(=O)NCC(=O)N[C@@H](Cc1c[nH]c2ccccc12)C(=O)N[C@@H](CCSC)C(=O)N[C@@H](CC(=O)O)C(=O)N[C@@H](Cc1ccccc1)C(N)=O [Peptide B, pGlu--Asp--Tyr(SO3 H)--Met--Gly--Trp--Met--Asp--Phe--NH2] | inhibit the hyperlocomotion induced by TRH | about 60% | Neither of peptide A and peptide B was found to influence | – | – |
| CSCC[C@H](NC(=O)[C@H](Cc1ccc(OS(=O)(=O)O)cc1)NC(=O)CCCC(=O)O)C(=O)NCC(=O)N[C@@H](Cc1c[nH]c2ccccc12)C(=O)N[C@@H](CCSC)C(=O)N[C@@H](CC(=O)O)C(=O)N[C@@H](Cc1ccccc1)C(N)=O [Peptide E, Glt--Tyr(SO3 H)--Met--Gly--Trp--Met--Asp--Phe--NH2] (HELM PEPTIDE1{[O=C(O)CCCC(=O)[*:2]].[O=C([C@H](Cc1ccc(OS(=O)(=O)O)cc1)N[*:1])[*:2]].M.G.W.M.D.F.[am]}$$$$V2.0) | – | – | – | 0.004 mg/kg | – |
| Pht--Tyr(SO3 H)--Met--Gly--Trp--Met--Asp--Phe--NH2 [Peptide F] | – | – | – | 0.0167 mg/kg | ED50, inhibition of methylphenidate-induced hyperlocomotion (Male ICR mice): 0.2513 mg/kg; Average: Mean ± S.E. (total of 7 scores), climbing behavior (Male ddy mice [6]; 0.1 mg/kg s.c.): 7.7 ± 0.6; Average: Mean ± S.E. (total of 7 scores), climbing behavior (Male ddy mice [6]; 0.3 mg/kg s.c.): 8.0 ± 0.8; Average: Mean ± S.E. (total of 7 scores), climbing behavior (Male ddy mice [6]; 1.0 mg/kg s.c.): 6.8 ± 0.8 |

Source: patent USRE32534E, “Peptides, process for preparing the same and psychodepressant compositions containing the same” (Amano Pharmaceutical Co., Ltd., priority 1982, dated 1987)
